Results published in patent US20140161720A1, “TREATMENT OF ANGIOGENIC- OR VASCULAR-ASSOCIATED DISEASES” (THE GENERAL HOSPITAL CORPORATION, priority 2011, published 2014).

What was measured:
MDA-MB-231 cells = test: High-throughput cell adhesion screen (cells remaining attached); assay type: cell-based, human; conditions: FIG. 1C
Experimental: A cell-based readout system was used for compound selection. For the cell-based screening, an optimal cell density of 10,000 breast cancer MDA-MB-231 cells/well was selected to produce the most prominent signal. The plated cells were incubated with each library compound, washed with PBS, and the Cell Titer-Glo (Promega) reagent was used to detect the number of cells remaining attached in each well. This ATP-based detection has a linear relationship between the luminescent signal and the number of cells per well. Of the 50,000 compounds screened, 86 library compounds (0.172% of screened compounds) were selected at 1.67 μM concentration for the second screening step. […] As a further test of toxicity, DAL was injected intraperitoneally at 100 mg/kg in SCID mice and signs of toxicity including cachexia, ruffled fur, diarrhea, anorexia, skin ulceration, and toxic death were monitored.
A screening strategy was developed to identify potential agents that target adhesion of endothelial cells or cancer cells to their substrate. […] The initial screening step quantified the number of cells remaining attached to their wells following incubation with each compound and subsequent washing steps. […] The agents that affect cell adhesion can be monitored through remodeling of actin filaments. […] Changes in actin assembly and cell shape after treatment with 12 compounds were determined. […]

[1] = design: species or system female SCID mice; conditions: mouse, in vivo, ip, 37.5 mg/kg
Experimental: To assess the anti-tumor effects of DAL, female SCID mice bearing orthotopic 4T1 or E0771 mammary tumors were treated with daily i.p. injections of 37.5 mg/kg DAL or saline. In order to calculate tumor volumes, the major and minor axis diameters were measured with calipers and the tumor volume was calculated by assuming a spherical shape based on the average of these two dimensions. The tumors were implanted in the mammary fat pad and allowed to grow to a starting size (small ˜100 mm^3 tumors for E0771, large ˜200 mm^3 tumors for 4T1) over ˜2 weeks. To ensure that tumors in the two groups were of similar growth rates, the treatment with saline or DAL was begun in pairs of tumors with similar sizes and growth times. Tumor volumes were measured every other day until the tumors reached an average of ˜10 mm in diameter. Tumor growth was quantified with the doubling rate, and calculated by fitting an exponential growth curve to the data for tumor size versus time.
As shown in Example 3, DAL has an antivascular effect in orthotopic mammary tumors in mice. Thus, the antitumor effect of DAL was next assessed. […] The effect of DAL on the growth of orthotopic 4T1 and E0771 mammary tumors with daily treatment of DAL or saline was evaluated (FIG. 4A). 37.5 mg/kg of DAL was used for these experiments based on the pharmacokinetics results as well as in vitro and in vivo data. […]

recombinant purified IDO = recombinant purified IDO (Homo sapiens, UniProt P14902); test: Enzymatic assay with recombinant purified IDO; assay type: biochemical
recombinant purified IDO, sequence (P14902 whole entry): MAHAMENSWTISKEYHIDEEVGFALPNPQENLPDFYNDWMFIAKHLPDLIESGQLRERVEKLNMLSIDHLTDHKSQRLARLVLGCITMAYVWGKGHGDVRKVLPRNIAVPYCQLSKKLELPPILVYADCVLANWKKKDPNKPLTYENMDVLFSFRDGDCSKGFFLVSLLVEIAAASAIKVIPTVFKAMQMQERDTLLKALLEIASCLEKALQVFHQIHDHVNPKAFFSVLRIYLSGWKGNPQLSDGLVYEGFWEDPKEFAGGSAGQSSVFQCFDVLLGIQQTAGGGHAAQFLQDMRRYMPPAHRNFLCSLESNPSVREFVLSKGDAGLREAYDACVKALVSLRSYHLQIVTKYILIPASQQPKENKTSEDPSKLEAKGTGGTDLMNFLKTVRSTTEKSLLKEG
Experimental: To determine whether DAL is an immuno-modulator, the effect of DAL on IDO activity was measured. To monitor IDO enzymatic activity, HEK 293 cells were engineered to express IDO and treated with DAL in a 10-dose IC50 mode with threefold serial dilutions. The IDO activity was analyzed by the presence of kynurenine (the first stable catabolite downstream of IDO) with a spectrophotometric assay (Katz et al., 2008; Littlejohn et al., 2000). […] Because DAL inhibits recombinant purified IDO in the enzymatic assay, it is likely that DAL physically interacts with IDO1, forming a complex that represses IDO1 activity. To elucidate a possible structural basis for this inhibition, comparative modeling and molecular docking were used (FIGS. 9A-9D). […] These residues are disordered in all existing IDO structures (Thackray et al., 2008); however, in the tryptophan-bound bacterial TDO structure, the corresponding loop is well-ordered and forms a “lid” on the binding pocket. Similar to human IDO1, bacterial TDO is a heme enzyme catalyzing the conversion of tryptophan into N-formyl-kynurenine. The binding site residues are strongly conserved between the two enzymes: in particular, the lid sequences share the common motif [K/R]GTGG[T/S]. It was therefore assessed that if lid closure may be a critical step for the efficient reaction catalysis by IDO. […]

Structure (SMILES): CC1(C)C=CC2=C(O1)C(=O)c1ccccc1C2=O [DAL, dehydro-alpha-lapachone]
- cell adhesion properties (MDA-MB-231 cells): lost their adhesion properties
- weight loss or other signs of toxicity [1]: no weight loss or other noted signs of toxicity
- inhibition of recombinant purified IDO (recombinant purified IDO): inhibits
